Assay results taken from patent publication US20210317092A1 (BAYER PHARMA AKTIENGESELLSCHAFT, priority 2016, published 2021).
Where two headings read alike, the source gives them in different places.

Key:
[1] = target: T1, human Bradykinin B1 receptor (Homo sapiens, UniProt P46663); assay: Calcium flux Assay (FLIPR) with recombinant CHO-K1 cells expressing human Bradykinin B1 receptor, in presence (hB1 IC50) or absence (hB1 free IC50) of 0.1% BSA; format: cell-based
T1 construct: host or cells: CHO-K1
T1 sequence (P46663 1-353): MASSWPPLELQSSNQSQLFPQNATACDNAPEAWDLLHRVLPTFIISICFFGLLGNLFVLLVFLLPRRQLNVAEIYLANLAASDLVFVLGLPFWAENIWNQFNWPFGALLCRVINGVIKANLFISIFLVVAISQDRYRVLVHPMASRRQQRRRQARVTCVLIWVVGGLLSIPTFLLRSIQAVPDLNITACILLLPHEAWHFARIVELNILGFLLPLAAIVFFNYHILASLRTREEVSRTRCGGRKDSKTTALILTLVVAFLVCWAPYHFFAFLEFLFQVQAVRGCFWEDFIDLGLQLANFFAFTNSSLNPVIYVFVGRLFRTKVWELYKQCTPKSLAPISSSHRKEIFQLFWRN

[2] = target: T2, native human Bradykinin B1 receptor (Homo sapiens, UniProt P46663); assay: Calcium flux Assay (FLIPR) with human fibroblasts expressing Bradykinin B1 receptor (hB1 IMR-90); format: cell-based; conditions: IMR-90 human fibroblasts expressing native Bradykinin B1 receptor
T2 construct: which express native human Bradykinin B1 receptor after induction with human IL-10; Coriell Institute; host or cells: IMR-90 human foetal lung fibroblasts, cytokine-induced
T2 sequence (P46663 1-353): T1 sequence (P46663 1-353)
Procedure: Calcium flux Assay (FLIPR) with human fibroblasts expressing Bradykinin B1 receptor (hB1 IMR-90)
The Calcium flux Assay was carried out utilising IMR-90 human foetal lung fibroblasts (American Type Culture Collection, Rockville, Md.; and Coriell Institute, Camden, N.J.), which express native human Bradykinin B1 receptor after induction with human […].
The fibroblasts were cultured in complete growth media comprised of Dulbecco's modified Eagle's medium (DMEM; Sigma) containing 10% foetal bovine serum, 4 mM L-glutamine, and 1% nonessential amino acids. The cells were maintained in a humidified atmosphere with 5% CO2 at 37° C. and were sub-cultured at a ratio of 1:3, every other day.
For the assay, IMR-90 fibroblasts were harvested using TrypLE Express (GIBCO/Invitrogen) and seeded into 384-well plates (Corning Cellbinding Surface, Cat. 3683) at a density of 15000 cells/well. The following day, cells were treated with 0.35 ng/mL human […] in 10% FBS/MEM for 3h to up-regulate Bradykinin B1 receptor. Induced cells were loaded with fluorescent calcium indicator by incubation with 2.5 μM Fluo-4/AM (Invitrogen) at 37° C., 5% CO2 for 2 h in the presence of 2.5 mM probenecid in 1% FBS/MEM. Extracellular dye was removed by washing with assay buffer (2.5 mM probenecid and 0.1% BSA in 20 mM HEPES/HBSS without bicarbonate or phenol red, pH 7.5). Compound examples were assayed at 8 concentrations in triplicate. After addition of compound examples to the cell plate and incubation for 30 min at 28° C., the addition of Bradykinin B1 agonist Lys-(Des-Arg)-Bradykinin (Bachem, Brackley) at a final concentration of EC90 was carried out on the FLIPR instrument while continuously monitoring Ca^2+-dependent fluorescence at 538 nm. A peptide antagonist Lys-(Des-Arg-Leu)-Bradykinin (Bachem, Brackley) at 20 µM was used to determine the full inhibition as control. IC50 values were determined by the same way described for the FLIPR assay with recombinant cells.

[3] = in absence of 0.1% BSA, read-out: hB1 free IC50
[4] = in presence of 0.1% BSA, read-out: hB1 IC50

Row | SMILES | IC50 [1, 3] [nM] | IC50 [1, 4] [nM] | IC50 [2] [nM]
1 | COc1ccc(-c2ccc(NC(=O)C3(c4ccc(C)c(F)c4)CC3)cc2-c2nnn[nH]2)cc1OC [Example 12, N-[3′,4′-dimethoxy-2-(1H-tetrazol-5-yl)biphenyl-4-yl]-1-(3-fluoro-4-methylpheny) cyclopropane-carboxamide] | 56.4 | 18.1 | 39.3
2 | COc1ccc(-c2ccc(NC(=O)C3(c4ccc(Cl)c(F)c4)CC3)cc2-c2nnn[nH]2)cc1OC [Example 16, 1-(4-chloro-3-fluorophenyl)-N-[3′,4′-dimethoxy-2-(1H-tetrazol-5-yl)biphenyl-4-yl]cyclopropane carboxamide] | – | 31.7 | 528
3 | COc1ccc(-c2ccc(NC(=O)C3(c4cc(Cl)ccc4F)CC3)cc2-c2nnn[nH]2)cc1OC [Example 17, 1-(5-chloro-2-fluorophenyl)-N-[3′,4′-dimethoxy-2-(1H-tetrazol-5-yl)biphenyl-4-yl]cyclopropane carboxamide] | – | 68.5 | 263
4 | COc1ccc(-c2ccc(NC(=O)C3(c4ccc(Cl)cc4F)CC3)cc2-c2nnn[nH]2)cc1OC [Example 18, 1-(4-chloro-2-fluorophenyl)-N-[3′,4′-dimethoxy-2-(1H-tetrazol-5-yl)biphenyl-4-yl]cyclopropane carboxamide] | – | 40.2 | 27.4
5 | O=C(Nc1ccc(-n2cc(Cl)cn2)c(-c2nnn[nH]2)c1)C1(c2cccc(Cl)c2)CC1 [Example 391, 1-(3-chlorophenyl)-N-[4-(4-chloro-1H-pyrazol-1-yl)-3-(1H-tetrazol-5-yl)phenyl]cyclopro-panecarboxa-mide] | 1890 | – | –
6 | Cc1ccc(C2(C(=O)Nc3ccc(-n4cc(Cl)cn4)c(-c4nnn[nH]4)c3)CC2)c(F)c1 [Example 393, N-[4-(4-chloro-1H-pyrazol-1-yl)-3-(1H-tetrazol-5-yl)phenyl]-1-(2-fluoro-4-methylphenyl)cy-clopropanecar-boxamide] | 187 | – | –
7 | O=C(Nc1ccc(-n2cc(Cl)cn2)c(-c2nnn[nH]2)c1)C1(c2ccc(C(F)(F)F)cc2F)CC1 [Example 394, N-[4-(4-chloro-1H-pyrazol-1-yl)-3-(1H-tetrazol-5-yl)phenyl]-1-[2-fluoro-4-(trifluoromethyl)phenyl]cyclopro-panecarboxamide] | 68.1 | – | –
8 | O=C(Nc1ccc(-n2cc(Cl)cn2)c(-c2nnn[nH]2)c1)C1(c2ccc(OC(F)(F)F)cc2F)CC1 [Example 395, N-[4-(4-chloro-1H-pyrazol-1-yl)-3-(1H-tetrazol-5-yl)phenyl]-1-[2-fluoro-4-(trifluoromethoxy)phenyl]cyclo-propanecarboxa-mide] | 16.2 | – | –
9 | CC(C)c1cnn(-c2ccc(NC(=O)C3(c4cccc(Cl)c4)CC3)cc2-c2nnn[nH]2)c1 [Example 396, 1-(3-chlorophenyl)-N-[4-(4-isopropyl-1H-pyrazol-1-yl)-3-(1H-tetrazol-5-yl)phenyl]cyclopro-panecarboxa-mide] | 30.7 | – | –
10 | CC(C)c1cnn(-c2ccc(NC(=O)C3(c4ccc(F)c(F)c4)CC3)cc2-c2nnn[nH]2)c1 [Example 397, 1-(3,4-difluorophenyl)-N-[4-(4-isopropyl-1H-pyrazol-1-yl)-3-(1H-tetrazol-5-yl)phenyl]cyclopro-panecarboxa-mide] | 38.5 | – | –
11 | Cc1ccc(C2(C(=O)Nc3ccc(-n4cc(C(C)C)cn4)c(-c4nnn[nH]4)c3)CC2)c(F)c1 [Example 398, 1-(2-fluoro-4-methylphenyl)-N-[4-(4-isopropyl-1H-pyrazol-1-yl)-3-(1H-tetrazol-5-yl)phenyl]cyclopro-panecarboxa-mide] | 20.6 | – | –
12 | CC(C)(C)c1cn(-c2ccc(NC(=O)C3(c4cccc(Cl)c4)CC3)cc2-c2nnn[nH]2)cn1 [Example 400, N-[4-(4-tert-butyl-1H-imidazol-1-yl)-3-(1H-tetrazol-5-yl)phenyl]-1-(3-chlorophenyl)cy-clopropanecarbox-amide] | 25.4 | – | –
13 | CC(C)(C)c1cn(-c2ccc(NC(=O)C3(c4ccc(F)c(F)c4)CC3)cc2-c2nnn[nH]2)cn1 [Example 401, N-[4-(4-tert-butyl-1H-imidazol-1-yl)-3-(1H-tetrazol-5-yl)phenyl]-1-(3,4-difluorophenyl)cy-clopropanecar-boxamide] | 34.5 | – | –
14 | Cc1ccc(C2(C(=O)Nc3ccc(-n4cnc(C(C)(C)C)c4)c(-c4nnn[nH]4)c3)CC2)c(F)c1 [Example 402, N-[4-(4-tert-butyl-1H-imidazol-1-yl)-3-(1H-tetrazol-5-yl)phenyl]-1-(2-fluoro-4-methylphenyl)cy-clopropanecar-boxamide] | 25.3 | – | –

The next lines start with the values.

Row | IC50 [1, 3] [nM] | IC50 [1, 4] [nM] | IC50 [2] [nM] | SMILES
15 | 20.6 | – | – | CC(C)(C)c1cn(-c2ccc(NC(=O)C3(c4ccc(C(F)(F)F)cc4F)CC3)cc2-c2nnn[nH]2)cn1 [Example 403, N-[4-(4-tert-butyl-1H-imidazol-1-yl)-3-(1H-tetrazol-5-yl)phenyl]-1-[2-fluoro-4-(trifluoromethyl)phenyl]cyclopro-panecarboxamide]
16 | 1390 | – | – | CCC1CCN(c2ccc(NC(=O)C3(c4cccc(Cl)c4)CC3)cc2-c2nnn[nH]2)C1=O (centres unmarked) [Example 405, 1-(3-chlorophenyl)-N-[4-(3-ethyl-2-oxopyrrolidin-1-yl)-3-(1H-tetrazol-5-yl)phenyl]cyclopro-panecarboxa-mide]
17 | 2160 | – | – | CCC1CCN(c2ccc(NC(=O)C3(c4ccc(F)c(F)c4)CC3)cc2-c2nnn[nH]2)C1=O (centres unmarked) [Example 406, 1-(3,4-difluorophenyl)-N-[4-(3-ethyl-2-oxopyrrolidin-1-yl)-3-(1H-tetrazol-5-yl)phenyl]cyclopro-panecarboxa-mide]
18 | 474 | – | – | CCC1CCN(c2ccc(NC(=O)C3(c4ccc(C)cc4F)CC3)cc2-c2nnn[nH]2)C1=O (centres unmarked) [Example 407, N-[4-(3-ethyl-2-oxopyrrolidin-1-yl)-3-(1H-tetrazol-5-yl)phenyl]-1-(2-fluoro-4-methylphenyl)cy-clopropanecar-boxamide]
19 | 131 | – | – | CCC1CCN(c2ccc(NC(=O)C3(c4ccc(C(F)(F)F)cc4F)CC3)cc2-c2nnn[nH]2)C1=O (centres unmarked) [Example 408, N-[4-(3-ethyl-2-oxopyrrolidin-1-yl)-3-(1H-tetrazol-5-yl)phenyl]-1-[2-fluoro-4-(trifluoromethyl)phenyl]cyclopro-panecarboxamide]
20 | 54.7 | – | – | CCC1CCN(c2ccc(NC(=O)C3(c4ccc(OC(F)(F)F)cc4F)CC3)cc2-c2nnn[nH]2)C1=O (centres unmarked) [Example 409, N-[4-(3-ethyl-2-oxopyrrolidin-1-yl)-3-(1H-tetrazol-5-yl)phenyl]-1-[2-fluoro-4-(trifluoromethoxy)phenyl]cyclo-propanecarboxa-mide]
21 | 6.05 | – | – | CC(C)(C)c1cnn(-c2ccc(NC(=O)C3(c4ccc(C(F)(F)F)cc4F)CC3)cc2-c2nnn[nH]2)c1 [Example 410, 1-[2-fluoro-4-(trifluoromethyl)phenyl]-N-[4-(4-tert-butyl-1H-pyrazol-1-yl)-3-(1H-tetrazol-5-yl)phenyl]cyclopro-panecarboxa-mide]
22 | 6.84 | – | – | CC(C)(C)c1cnn(-c2ccc(NC(=O)C3(c4ccc(OC(F)(F)F)cc4F)CC3)cc2-c2nnn[nH]2)c1 [Example 411, 1-[2-fluoro-4-(trifluoromethoxy)phenyl]-N-[4-(4-tert-butyl-1H-pyrazol-1-yl)-3-(1H-tetrazol-5-yl)phenyl]cyclopro-pranecarboxa-mide]
23 | 504 | – | – | O=C(Nc1ccc(-n2cnc(C(F)(F)F)n2)c(-c2nnn[nH]2)c1)C1(c2ccc(C(F)(F)F)cc2F)CC1 [Example 412, 1-[2-fluoro-4-(trifluoromethyl)phenyl]-N-{3-(1H-tetrazol-5-yl)-4-[3-(trifluoromethyl)-1H-1,2,4-triazol-1-yl]phenyl}cyclopro-panecarboxa-mide]
24 | 5.84 | – | – | CC(C)c1cnn(-c2ccc(NC(=O)C3(c4ccc(OC(F)(F)F)cc4F)CC3)cc2-c2nnn[nH]2)c1 [Example 413, 1-[2-fluoro-4-(trifluoromethoxy)phenyl]-N-[4-(4-isopropyl-1H-pyrazol-1-yl)-3-(1H-tetrazol-5-yl)phenyl]cyclopro-panecarboxa-mide]
